From patent US11998558B2, “Synthetic composition for treating antibiotic associated complications” (GLYCOM A/S, priority 2015, dated 2024)

How the values were obtained:
[1] = test system: B. adolescentis phylogenetic group; assay: Healthy adult study, ITS profiling of the Bifidobacterium community in faecal samples; format: in vivo, human; conditions: healthy adults
Experimental: (§1) A total of 100 male and female healthy adults are recruited to participate in the study. After a screening visit and run-in period of 1-2 weeks, the participants are selected and randomized into ten groups, each of 10 subjects. One group is administered daily a placebo product containing 2 grams of glucose. The remaining 9 groups are administered daily a treatment product containing one of the following: a) 20 g of 2′-FL, b) 10 g of 2′-FL, c) 5 g of 2′-FL, d) 20 g of LNnT, e) 10 g of LNnT, f) 5 g of LNnT, g) 20 g of a 2:1 mixture of 2′-FL and LNnT, h) 10 g of a 2:1 mixture of 2′-FL and LNnT, and i) 5 g of a 2:1 mixture of 2′-FL and LNnT for 2 weeks. The placebo and treatment products are in powder form in a unit dosage container.
(§2) The study runs for 2 weeks with the participants consuming either a placebo or a treatment product daily. Participants are instructed to consume the products in the morning with breakfast. Compliance is monitored through the interactive internet enabled system.
(§3) To assess the Bifidobacterium community, ITS profiling of DNA samples is performed according to Milani et al, FEMS Microbiol. Ecol. 90, 493 (2014). […] Both B. adolescentis and B. pseudocatenulatum are members of the B. adolescentis phylogenetic group. It can be seen that oral ingestion of the HMOs clearly increases the abundance of B. adolescentis and/or B. pseudocatenulatum in the microbiota of healthy adults, as well as its relative abundance compared to the totality of other Bifidobacterium species.

[2] = test system: totality of B. longum + B. bifidum + B. animalis lactis + B. angulatum; assay: as above; format: in vivo, human; conditions: healthy adults
Experimental: as §1, §2, §3

## 2′-fucosyllactose [2′-FL]
[1]; 5 g daily for 2 weeks
  percentage increase of B. adolescentis phylogenetic group in human faeces after consumption of HMOs: 50%
[1]; 10 g daily for 2 weeks
  percentage increase of B. adolescentis phylogenetic group in human faeces after consumption of HMOs: 325%
[1]; 20 g daily for 2 weeks
  percentage increase of B. adolescentis phylogenetic group in human faeces after consumption of HMOs: 120%
[2]; 5 g daily for 2 weeks
  percentage increase of totality of B. longum + B. bifidum + B. animalis lactis + B. angulatum in human faeces after consumption of HMOs: 0%
[2]; 10 g daily for 2 weeks
  percentage increase of totality of B. longum + B. bifidum + B. animalis lactis + B. angulatum in human faeces after consumption of HMOs: 20%
[2]; 20 g daily for 2 weeks
  percentage increase of totality of B. longum + B. bifidum + B. animalis lactis + B. angulatum in human faeces after consumption of HMOs: 15%

## CC(=O)N[C@H]1[C@H](O[C@H]2[C@@H](O)[C@@H](CO)O[C@@H](O[C@H]3[C@H](O)[C@@H](O)C(O)O[C@@H]3CO)[C@@H]2O)O[C@H](CO)[C@@H](O[C@@H]2O[C@H](CO)[C@H](O)[C@H](O)[C@H]2O)[C@@H]1O (mixture of isomers) [LNnT, lacto-N-neotetraose]
[1]; 5 g daily for 2 weeks
  percentage increase of B. adolescentis phylogenetic group in human faeces after consumption of HMOs: 90%
[1]; 10 g daily for 2 weeks
  percentage increase of B. adolescentis phylogenetic group in human faeces after consumption of HMOs: 195%
[1]; 20 g daily for 2 weeks
  percentage increase of B. adolescentis phylogenetic group in human faeces after consumption of HMOs: 185%
[2]; 5 g daily for 2 weeks
  percentage increase of totality of B. longum + B. bifidum + B. animalis lactis + B. angulatum in human faeces after consumption of HMOs: 50%
[2]; 10 g daily for 2 weeks
  percentage increase of totality of B. longum + B. bifidum + B. animalis lactis + B. angulatum in human faeces after consumption of HMOs: 130%
[2]; 20 g daily for 2 weeks
  percentage increase of totality of B. longum + B. bifidum + B. animalis lactis + B. angulatum in human faeces after consumption of HMOs: 105%
